This note sets out measurements from PMC7602263, “Exploring the Use of Helicogenic Amino Acids for Optimising Single Chain Relaxin-3 Peptide Agonists” (Biomedicines, 2020).

Like-named read-outs stand apart in the source and are kept apart here. Where a SMILES comes first, the peptide text is derived from it. Bridges are numbered along the chain shown (N, C = ends). Where no end group is shown, it is not given here. [ ]: non-standard residue; d: D form. S5 = C=CCCC[C@](C)(N)C(=O)O

In experiment [1] the target is T1, RXFP3 (Homo sapiens, UniProt Q9NSD7).
T1 construct: expressed in transfected cells; host or cells: CHO-K1
T1 sequence (Q9NSD7 1-469): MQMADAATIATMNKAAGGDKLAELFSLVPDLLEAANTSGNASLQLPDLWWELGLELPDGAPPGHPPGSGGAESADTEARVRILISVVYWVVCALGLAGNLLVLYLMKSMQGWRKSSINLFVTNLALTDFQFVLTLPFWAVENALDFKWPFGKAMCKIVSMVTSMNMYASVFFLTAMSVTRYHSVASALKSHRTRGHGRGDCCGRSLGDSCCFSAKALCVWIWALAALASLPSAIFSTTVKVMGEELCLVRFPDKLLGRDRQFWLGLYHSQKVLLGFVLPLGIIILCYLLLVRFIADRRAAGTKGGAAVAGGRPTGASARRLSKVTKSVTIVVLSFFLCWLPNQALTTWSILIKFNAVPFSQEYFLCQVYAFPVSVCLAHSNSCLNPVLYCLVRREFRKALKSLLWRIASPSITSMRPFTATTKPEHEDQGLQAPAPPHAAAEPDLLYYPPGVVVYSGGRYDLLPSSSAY
Kind of experiment: cAMP activity assay: inhibition of forskolin-induced cAMP accumulation in CHO-K1 cells stably expressing RXFP3. Conditions: CHO-K1 cells stably expressing RXFP3, inhibition of cAMP accumulation stimulated by 5 μM forskolin, mean ± SEM, triplicates, three independent experiments. Format: cell-based. The procedure: CHO-KI cells stably expressing RXFP3 were used to study the ability of the novel analogues to inhibit forskolin-induced cAMP accumulation. Assays were conducted as previously described. Briefly, 5 μM forskolin was used to stimulate the cells and increasing concentrations of the novel analogues were added to measure the dose-dependent reduction in the cAMP response via activation of the Gi/o-coupled RXFP3. Each analogue was tested in triplicates and each experiment was independently repeated three times. Data are presented as mean ± SEM and were analysed using GraphPad Prism 8.0. Statistical analyses were conducted using 1-way ANOVA and uncorrected Fisher’s least square difference.
(§1) To determine their binding affinity, the ability of increasing concentration of analogues to compete with europium labelled R3 B1-22R were measured using CHO cells stably expressing RXFP3 [37]. Their potency at RXFP3 was measured by inhibition of cAMP accumulation induced by forskolin, as RXFP3 couples to an inhibitory G-protein.

Experiment [2] concerns the target T1, RXFP3. Kind of experiment: Competition binding assay with Eu-labelled R3 B1-22R on CHO-K1 cells stably expressing RXFP3. Particulars: read-out: pKi [logM] (converted). How it is done: Determination of binding affinity in this study was carried out as previously described. Briefly, CHO-K1 cells stably expressing RXFP3 [38] were treated with 5 nM Eu-labelled R3 B1-22R with increasing concentrations of novel analogues. Fluorescence measurement were recorded with 340 nm excitation and 614 nm emission wavelengths. Assays were conducted in triplicates and independently repeated at least three times. […] Statistical analyses were conducted using 1-way ANOVA with uncorrected Fisher’s least square difference in GraphPad Prism 8.0.
as §1

In turn, `CC[C@H](C)[C@H](NC(=O)[C@H](Cc1ccccc1)NC(=O)C(C)(C)NC(=O)[C@H](CCCNC(=N)N)NC(=O)CNC(=O)[C@H](CO)NC(C)=O)C(=O)N[C@@H](CCCNC(=N)N)C(=O)NC(C)(C)C(=O)N[C@H](C(=O)N[C@H](C(=O)N[C@@H](Cc1ccccc1)C(=O)N[C@H](C(=O)N[C@@H](CO)C(=O)NCC(=O)NCC(=O)N[C@@H](CO)C(=O)N[C@@H](CCCNC(=N)N)C(=O)N[C@@H](Cc1c[nH]c2ccccc12)C(=O)O)[C@@H](C)O)[C@@H](C)CC)C(C)C` [Analogue 1] (HELM PEPTIDE1{[ac].S.G.R.[Aib].F.I.R.[Aib].V.I.F.T.S.G.G.S.R.W}$$$$V2.0) gave an EC50 at RXFP3 [1] (SEM) of 67.6 nM. For the same compound, the Ki at RXFP3 [2] (SEM) is 562 nM.

`CC[C@H](C)[C@@H]1NC(=O)[C@H](Cc2ccccc2)NC(=O)[C@@](C)(NC(=O)[C@H](CCCNC(=N)N)NC(=O)CNC(=O)[C@H](CO)NC(=O)[C@H](CCCCN)NC(=O)[C@H](CCCCN)NC(=O)[C@H](CCCCN)NC(=O)[C@@H](N)CCCCN)CCCC=CCCC[C@@](C)(C(=O)N[C@H](C(=O)N[C@H](C(=O)N[C@@H](Cc2ccccc2)C(=O)N[C@H](C(=O)N[C@@H](CO)C(=O)NCC(=O)NCC(=O)N[C@@H](CO)C(=O)N[C@@H](CCCNC(=N)N)C(=O)N[C@@H](Cc2c[nH]c3ccccc23)C(=O)O)[C@@H](C)O)[C@@H](C)CC)C(C)C)NC(=O)[C@H](CCCNC(=N)N)NC1=O` [Analogue 12] (H-KKKKSGR[S5]FIR[S5]VIFTSGGSRW-OH; staple 8-12) showed an EC50 at RXFP3 [1] (SEM) of 6.46 nM. In addition, at RXFP3 [2] (SEM), the Ki is 182 nM.

The compound `C=CCCC[C@](C)(NC(=O)[C@H](CCCNC(=N)N)NC(=O)CNC(=O)[C@H](CO)NC(C)=O)C(=O)N[C@@H](Cc1ccccc1)C(=O)N[C@H](C(=O)N[C@@H](CCCNC(=N)N)C(=O)N[C@@](C)(CCCC=C)C(=O)N[C@H](C(=O)N[C@H](C(=O)N[C@@H](Cc1ccccc1)C(=O)N[C@H](C(=O)N[C@@H](CO)C(=O)NCC(=O)NCC(=O)N[C@@H](CO)C(=O)N[C@@H](CCCNC(=N)N)C(=O)N[C@@H](Cc1c[nH]c2ccccc12)C(=O)O)[C@@H](C)O)[C@@H](C)CC)C(C)C)[C@@H](C)CC` [Analogue 11] (HELM PEPTIDE1{[ac].S.G.R.[C=CCCC[C@](C)(N[*:1])C(=O)[*:2]].F.I.R.[C=CCCC[C@](C)(N[*:1])C(=O)[*:2]].V.I.F.T.S.G.G.S.R.W}$$$$V2.0) showed an EC50 at RXFP3 [1] (SEM) of 41.7 nM. The Ki on RXFP3 [2] (SEM) was 933 nM.

The compound `CC[C@H](C)[C@H](NC(=O)[C@H](Cc1ccccc1)NC(=O)C(C)(C)NC(=O)[C@H](CCCNC(=N)N)NC(=O)CNC(=O)[C@@H](N)CO)C(=O)N[C@@H](CCCNC(=N)N)C(=O)NC(C)(C)C(=O)NC(C)(C)C(=O)N[C@H](C(=O)N[C@@H](Cc1ccccc1)C(=O)NC(C)(C)C(=O)N[C@@H](CO)C(=O)NCC(=O)NCC(=O)N[C@@H](CO)C(=O)N[C@@H](CCCNC(=N)N)C(=O)N[C@@H](Cc1c[nH]c2ccccc12)C(=O)O)[C@@H](C)CC` [Analogue 9] (HELM PEPTIDE1{S.G.R.[Aib].F.I.R.[Aib].[Aib].I.F.[Aib].S.G.G.S.R.W}$$$$V2.0) had an EC50 on RXFP3 [1] (SEM) of 1780 nM. Besides, the Ki at RXFP3 [2] (SEM) is 2000 nM.

With `CC[C@H](C)[C@H](NC(=O)[C@H](Cc1ccccc1)NC(=O)C(C)(C)NC(=O)[C@H](CCCNC(=N)N)NC(=O)CNC(=O)[C@H](CO)NC(C)=O)C(=O)N[C@@H](CCCNC(=N)N)C(=O)NC(C)(C)C(=O)NC(C)(C)C(=O)N[C@H](C(=O)N[C@@H](Cc1ccccc1)C(=O)NC(C)(C)C(=O)N[C@@H](CO)C(=O)NCC(=O)NCC(=O)N[C@@H](CO)C(=O)N[C@@H](CCCNC(=N)N)C(=O)N[C@@H](Cc1c[nH]c2ccccc12)C(=O)O)[C@@H](C)CC` [Analogue 10] (HELM PEPTIDE1{[ac].S.G.R.[Aib].F.I.R.[Aib].[Aib].I.F.[Aib].S.G.G.S.R.W}$$$$V2.0), the response on RXFP3 [1] (SEM) was half-maximal at 3240 nM (EC50). Besides, on RXFP3 [2], the Ki was above 10000 nM.

As to `CC[C@H](C)[C@@H]1NC(=O)[C@H](Cc2ccccc2)NC(=O)[C@@H](NC(=O)[C@H](CCCNC(=N)N)NC(=O)CNC(=O)[C@@H](N)CO)CSCC(=O)CSC[C@@H](C(=O)N[C@H](C(=O)N[C@H](C(=O)N[C@@H](Cc2ccccc2)C(=O)N[C@H](C(=O)N[C@@H](CO)C(=O)NCC(=O)NCC(=O)N[C@@H](CO)C(=O)N[C@@H](CCCNC(=N)N)C(=O)N[C@@H](Cc2c[nH]c3ccccc23)C(=O)O)[C@@H](C)O)[C@@H](C)CC)C(C)C)NC(=O)[C@H](CCCNC(=N)N)NC1=O` [Analogue 14] (HELM PEPTIDE1{S.G.R.C.F.I.R.C.V.I.F.T.S.G.G.S.R.W}|CHEM1{[O=C(C[*:1])C[*:2]]}$PEPTIDE1,CHEM1,4:R3-1:R1|PEPTIDE1,CHEM1,8:R3-1:R2$$$V2.0), the EC50 at RXFP3 [1] (SEM) is 6170 nM. Also, the Ki at RXFP3 [2] is above 10000 nM.

On to `CC[C@H](C)[C@@H]1NC(=O)[C@H](Cc2ccccc2)NC(=O)[C@@H](NC(=O)[C@H](CCCNC(=N)N)NC(=O)CNC(=O)[C@H](CO)NC(C)=O)CSCC(=O)CSC[C@@H](C(=O)N[C@H](C(=O)N[C@H](C(=O)N[C@@H](Cc2ccccc2)C(=O)N[C@H](C(=O)N[C@@H](CO)C(=O)NCC(=O)NCC(=O)N[C@@H](CO)C(=O)N[C@@H](CCCNC(=N)N)C(=O)N[C@@H](Cc2c[nH]c3ccccc23)C(=O)O)[C@@H](C)O)[C@@H](C)CC)C(C)C)NC(=O)[C@H](CCCNC(=N)N)NC1=O` [Analogue 15] (HELM PEPTIDE1{[ac].S.G.R.C.F.I.R.C.V.I.F.T.S.G.G.S.R.W}|CHEM1{[O=C(C[*:1])C[*:2]]}$PEPTIDE1,CHEM1,5:R3-1:R1|PEPTIDE1,CHEM1,9:R3-1:R2$$$V2.0), for which the EC50 on RXFP3 [1] (SEM) was 4790 nM. Also, the Ki at RXFP3 [2] (SEM) was 4790 nM.

“RAAPYGVRLSGREFIRAVIFTSGGSRW [H3 B-chain, reference compound]”: the Ki at RXFP3 [2] (SEM) was 1230 nM.

Consider `CC[C@H](C)[C@H](NC(=O)[C@H](Cc1ccccc1)NC(=O)C(C)(C)NC(=O)[C@H](CCCNC(=N)N)NC(=O)CNC(=O)[C@@H](N)CO)C(=O)N[C@@H](CCCNC(=N)N)C(=O)NC(C)(C)C(=O)NC(C)(C)C(=O)N[C@H](C(=O)N[C@@H](Cc1ccccc1)C(=O)N[C@H](C(=O)N[C@@H](CO)C(=O)NCC(=O)NCC(=O)N[C@@H](CO)C(=O)N[C@@H](CCCNC(=N)N)C(=O)N[C@@H](Cc1c[nH]c2ccccc12)C(=O)O)[C@@H](C)O)[C@@H](C)CC` [Analogue 3] (HELM PEPTIDE1{S.G.R.[Aib].F.I.R.[Aib].[Aib].I.F.T.S.G.G.S.R.W}$$$$V2.0), for which the EC50 on RXFP3 [1] (SEM) was 91.2 nM.

Consider `CC[C@H](C)[C@H](NC(=O)[C@H](Cc1ccccc1)NC(=O)C(C)(C)NC(=O)[C@H](CCCNC(=N)N)NC(=O)CNC(=O)[C@@H](N)CO)C(=O)N[C@@H](CCCNC(=N)N)C(=O)NC(C)(C)C(=O)N[C@H](C(=O)N[C@H](C(=O)N[C@@H](Cc1ccccc1)C(=O)NC(C)(C)C(=O)N[C@@H](CO)C(=O)NCC(=O)NCC(=O)N[C@@H](CO)C(=O)N[C@@H](CCCNC(=N)N)C(=O)N[C@@H](Cc1c[nH]c2ccccc12)C(=O)O)[C@@H](C)CC)C(C)C` [Analogue 5] (HELM PEPTIDE1{S.G.R.[Aib].F.I.R.[Aib].V.I.F.[Aib].S.G.G.S.R.W}$$$$V2.0), for which the midpoint of the response on RXFP3 [1], the EC50, lay at 1020 nM.

Regarding `CC[C@H](C)[C@@H]1NC(=O)[C@H](Cc2ccccc2)NC(=O)[C@@](C)(NC(=O)[C@H](CCCNC(=N)N)NC(=O)CNC(=O)[C@H](CO)NC(C)=O)CCCC=CCCC[C@@](C)(C(=O)N[C@H](C(=O)N[C@H](C(=O)N[C@@H](Cc2ccccc2)C(=O)N[C@H](C(=O)N[C@@H](CO)C(=O)NCC(=O)NCC(=O)N[C@@H](CO)C(=O)N[C@@H](CCCNC(=N)N)C(=O)N[C@@H](Cc2c[nH]c3ccccc23)C(=O)O)[C@@H](C)O)[C@@H](C)CC)C(C)C)NC(=O)[C@H](CCCNC(=N)N)NC1=O` [Ac-R3B10-27 [13/17 HC], reference compound] (Ac-SGR[S5]FIR[S5]VIFTSGGSRW-OH; staple 4-8), the Ki at RXFP3 [2] (SEM) was 41.7 nM.

As a reminder, the EC50 is the concentration at which the effect is half-maximal. A higher EC50 goes with a less potent agent.
